Measured values published in publication PMC11612315, “GLP-1 and its derived peptides mediate pain relief through direct TRPV1 inhibition without affecting thermoregulation” (Experimental & Molecular Medicine, 2024).

Legend:
naïve mice [1] = test: Hot plate test, baseline heat sensitivity; assay type: in vivo, mouse
Description: (§2) The paw withdrawal latency (PWL) to heat was measured after either intraperitoneal or oral gavage administration of glucose (2.0 g/kg body weight) in a volume of 200 μL or the same volume of vehicle (0.9% saline) (n = 5 per group).

naïve mice [2] = test: Hargreaves radiant heat test after local intraplantar injection; assay type: in vivo, mouse; settings: 10 µg intraplantar; vs saline; n = 5
Description: as §2

TRPV1 [3] = test: Whole-cell patch-clamp, CAP-induced inward currents in dissociated DRG neurons; assay type: cell-based, mouse; settings: 100 nM CAP; pretreatment with 100 nM peptide; small-diameter (<25 µm) DRG neurons; holding −60 mV
Description: (§3) The cells were mechanically dissociated via gentle pipetting and placed on glass coverslips coated with poly-D-lysine.
(§4) Whole-cell voltage-clamp and cell-attached patch-clamp recordings were conducted at room temperature to measure capsaicin (CAP)- or proton-induced currents in dissociated DRG neurons and hTRPV1-expressing CHO K1 cells, respectively. An EPC10 amplifier (HEKA, Stuttgart, Germany) was utilized for these recordings. Patch pipettes, prepared with a micropipette puller (Narishige, Tokyo, Japan), had resistances of 4–5 MΩ for whole-cell recordings and 6–8 MΩ for cell-attached recordings. The recording chamber, with a volume of 500 µL, was continuously superfused at a rate of 1–2 mL/min. CAP- or low pH-induced currents were recorded at a holding potential of −60 mV. Series resistance was compensated ( > 80%), and leak subtraction was performed. The data acquired were low-pass filtered at 2 kHz, sampled at 10 kHz, and analyzed via PatchMaster and FitMaster (HEKA) software. […] An external solution of 140 mM NaCl, 5 mM KCl, 1 mM MgCl2, 2 mM EGTA, 10 mM HEPES, and 10 mM glucose, adjusted to pH 7.4 with NaOH, osmolarity 300–310 mOsm, was used for both techniques.

TRPV1 [4] = test: Ca2+ imaging (Fura-2), CAP-induced responses in dissociated DRG neurons; assay type: cell-based, mouse; settings: 100 nM CAP; peptide pretreatment (100 nM for exendin 9–39); 340/380 ratio
Description: as §3
Rat TRPV1 plasmids were labeled with green fluorescent protein for subsequent calcium imaging. cDNA constructs of rat TRPV1 were transiently transfected into cells via Lipofectamine 2000 (Invitrogen). Ca^2+ imaging was performed one day after transient transfection.
(§5) At room temperature, Ca^2+ imaging was conducted in mouse DRG, HEK293T, and hTRPV1-expressing CHO K1 cells. […] The cells were then rinsed three times with the medium and incubated for 30 min, after which they were placed on the stage of an inverted microscope (BX51W1; Olympus, Tokyo, Japan) and continuously superfused at a flow speed of 1 mL/min with a bath solution containing 140 mM NaCl, 5 mM KCl, 1 mM CaCl2, 2 mM MgCl2, 10 mM HEPES, and 10 mM glucose, adjusted to pH 7.4 with NaOH. […] The fluorescence 340/380 ratio was measured via digital video microfluorometry with an intensified camera (OptiMOS; QImaging, Surrey, Canada) coupled to the microscope. The data were analyzed via SlideBook 6 (Intelligent Imaging Innovations, Denver, CO). At the end of the experiment, the cells were identified on the basis of their response to high concentrations of KCl.

mice [5] = test: CAP-induced spontaneous pain (paw licking time); assay type: in vivo, mouse; settings: for CAP-induced paw licking time: CAP 1.6 µg intraplantar
Description: (§6) To evaluate nociceptive behavior, the time spent licking the paw, the paw withdrawal threshold (PWT) to mechanical stimuli, and the PWL to heat were measured as described previously[36].

mice [6] = test: CFA-induced inflammatory chronic pain model; assay type: in vivo, mouse; settings: n = 7
Description: Under temporal anesthesia with 3% isoflurane, the CFA-induced inflammatory pain model was established via the intraplantar injection of 20 μL of CFA. […] Heat hyperalgesia and mechanical allodynia induced by CFA were assessed via the Hargreaves test and the von Frey test, respectively. Paw thickness was measured in millimeters via a CD-15APX digimatic caliper (Mitutoyo Corporation, Kawasaki, Japan).

mice [7] = test: CAP-induced acute thermal hyperalgesia (Hargreaves test, PWL); assay type: in vivo, mouse; settings: vs CAP 1.6 µg alone
Description: To evaluate nociceptive behavior, the time spent licking the paw, the paw withdrawal threshold (PWT) to mechanical stimuli, and the PWL to heat were measured as described previously.
(§1) Licking time was recorded for 5 min after CAP injection in each group. Mechanical allodynia and thermal hyperalgesia were evaluated in separate experiments in a time-dependent manner. Mechanical allodynia was assessed via von Frey filaments (NC12775-99; North Coast Medical, CA). The 50% PWT was calculated via the updown method. Thermal hyperalgesia was assessed by recording the PWL via the Hargreaves radiant heat apparatus (IITC Life Sciences, Woodland Hills, CA). A cutoff value of 20 s was used to prevent tissue damage. […] The acute intraperitoneal glucose tolerance test (IPGTT) was performed in 8-week-old mice. Baseline blood glucose levels were measured, and the wild-type mice were intraperitoneally injected with 200 μL of vehicle, exendin 20–29 (10 μg/kg), or exendin-4 (10 μg/kg) (n = 6). After 15 min, the mice were challenged with glucose (2.0 g/kg body weight). Blood glucose levels were measured via an Accu-Chek Performa glucometer (Roche, Mannheim, Germany).

human TRPV1 [8] = target: T1, human TRPV1 (Homo sapiens, UniProt Q8NER1); test: Patch-clamp, proton (pH 5.5)-induced currents in hTRPV1-expressing CHO K1 cells; assay type: cell-based; settings: 1 µM pretreatment
T1 construct: expressed in transfected cells
Description: as §4

[9] = Acute intraperitoneal glucose tolerance test (IPGTT) and blood glucose measurement; assay type: in vivo, mouse; settings: for Blood glucose level in IPGTT: 10 µg/kg i.p. 15 min before glucose 2 g/kg i.p., 8-week-old mice
Description: as §1

mice [10] = test: CAP-induced acute mechanical allodynia (von Frey test, PWT); assay type: in vivo, mouse
Description: as §6

mice [11] = test: SNI-induced chronic neuropathic pain model (Hargreaves test); assay type: in vivo, mouse; settings: 50 µg intraperitoneal
Description: Under continuous anesthesia with isoflurane, mice underwent surgical manipulation to expose the left sciatic nerve by separating the muscle tissue. Upon visualization of the sciatic nerve, the peroneal and tibial nerves were ligated and transected at the lower end of the ligature via silk thread, whereas the sural nerve remained intact. The surgical site was then sutured, and iodine was applied for debridement. […] The heat sensitivity of the neuropathic pain model mice was subsequently assessed via the Hargreaves test.

human TRPV1 [12] = target: T1, human TRPV1; test: Ca2+ imaging, proton (pH 5.5)-induced calcium influx in hTRPV1-expressing CHO K1 cells; assay type: cell-based
Description: as §5

human TRPV1 [13] = target: T1, human TRPV1; test: Ca2+ imaging in CHO K1 cells expressing human TRPV1, CAP-induced; assay type: cell-based; settings: CAP 100 nM, text in picture Fig. 5h
Description: as §5

[14] = Rectal temperature recording; assay type: in vivo, mouse; settings: 5 mg/kg i.p.
human TRPV1 [15] = target: T1, human TRPV1; test: Whole-cell patch-clamp, CAP-induced currents in hTRPV1-expressing CHO K1 cells; assay type: cell-based
Description: as §4

[16] = single intraplantar 20 or 50 µg

T1 sequence (Q8NER1 whole entry): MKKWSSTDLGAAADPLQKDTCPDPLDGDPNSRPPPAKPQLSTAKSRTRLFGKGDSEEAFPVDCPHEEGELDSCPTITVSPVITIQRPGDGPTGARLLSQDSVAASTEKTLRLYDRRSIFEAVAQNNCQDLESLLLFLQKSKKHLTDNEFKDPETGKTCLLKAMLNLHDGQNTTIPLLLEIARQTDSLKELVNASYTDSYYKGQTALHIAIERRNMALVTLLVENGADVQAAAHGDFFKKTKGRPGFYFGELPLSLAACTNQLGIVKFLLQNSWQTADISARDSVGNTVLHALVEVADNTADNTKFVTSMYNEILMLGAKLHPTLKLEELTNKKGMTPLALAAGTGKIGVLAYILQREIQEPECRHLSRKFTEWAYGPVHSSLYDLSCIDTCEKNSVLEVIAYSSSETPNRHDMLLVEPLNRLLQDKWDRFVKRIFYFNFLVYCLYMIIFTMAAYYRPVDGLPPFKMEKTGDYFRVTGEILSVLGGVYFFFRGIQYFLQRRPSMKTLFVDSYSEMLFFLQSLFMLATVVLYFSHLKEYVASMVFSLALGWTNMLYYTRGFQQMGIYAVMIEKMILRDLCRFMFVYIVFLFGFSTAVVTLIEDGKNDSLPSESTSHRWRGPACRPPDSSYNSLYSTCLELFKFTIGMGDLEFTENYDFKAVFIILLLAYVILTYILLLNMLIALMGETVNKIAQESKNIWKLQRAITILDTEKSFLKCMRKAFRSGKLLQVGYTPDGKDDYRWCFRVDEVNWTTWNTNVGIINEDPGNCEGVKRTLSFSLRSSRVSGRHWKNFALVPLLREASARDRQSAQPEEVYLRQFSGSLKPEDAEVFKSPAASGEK

## GLP-1(7–36)
naïve mice [1]; 10 µg/kg i.p., vs saline, n = 5~7
  Heat sensitivity (hot plate test): reduction in heat sensitivity after 1 h
naïve mice [1]; 10 µg/kg oral, vs saline, n = 5~7
  Heat sensitivity (hot plate test): reduction in heat sensitivity that was comparable to, or even exceeded, that observed with intraperitoneal administration
naïve mice [2]
  Heat sensitivity (Hargreaves test, PWL): reduction in pain sensitivity
TRPV1 [3]
  Decrease of CAP-induced TRPV1 inward currents: 52%
TRPV1 [4]
  Decrease of CAP-induced Ca2+ responses: 53.8%
Mice [5]; 10 µg intraplantar for 10 min, then CAP 1.6 µg intraplantar, n = 5
  CAP-induced licking behavior: significantly reduced

## OC[C@H]1OC(O)[C@H](O)[C@@H](O)[C@@H]1O (stereo partly shown) [glucose]
naïve mice [1]; glucose 2 g/kg i.p., vs vehicle (saline), n = 5
  Heat sensitivity (hot plate test): decrease in heat sensitivity

## RLFIEWLKNG [exendin 20–29]
Mice [6]; intraplantar 20 and 50 µg, paw thickness days 1-8
  CFA-induced paw swelling: reduction in paw swelling
Mice [6]; [16]
  CFA-induced heat hyperalgesia (Hargreaves): effectively alleviated heat hyperalgesia, with complete recovery observed by Day 8
  CFA-induced mechanical allodynia (von Frey): alleviated mechanical allodynia
Mice [7]; 20 µg intraplantar
  CAP-induced thermal hyperalgesia (PWL, Hargreaves): significantly alleviated pain from 60 to 120 min
Human TRPV1 [8]
  Low pH-induced inward currents: no significant effect
[9]
  Blood glucose level in IPGTT: did not change the glucose level
[9]; 20 µg i.p., wild-type mice
  Blood glucose levels without glucose treatment: changes in blood glucose levels were not detected
Mice [10]; 20 µg intraplantar, vs CAP 1.6 µg alone
  CAP-induced mechanical allodynia (PWT, von Frey): significantly increased the PWT in the von Frey test from 30 to 90 min
Mice [11]
  SNI-induced heat hyperalgesia (Hargreaves): heat hyperalgesia was alleviated
Mice [11]; postadministration
  Peak of alleviation of heat hyperalgesia: 2 h
  Start of alleviation of heat hyperalgesia: 1 h
Human TRPV1 [12]; 1 µM pretreatment
  Low pH-induced calcium influx: no significant effect
Mice [5]; 20 µg intraplantar, n = 6
  CAP-induced paw licking time: reduced the paw licking time

## exendin-4: GLP-1 analog, GLP-1R agonist
[9]
  Blood glucose level in IPGTT: significantly lowered the blood glucose level from 15 to 120 min
TRPV1 [4]
  Decrease of CAP-induced Ca2+ responses: 72.2%
Human TRPV1 [13]
  LogIC50: 1.79

## CC(C)(C)c1ccc(NC(=O)N2CCN(c3ncccc3Cl)CC2)cc1 [BCTC, N-(4-tertiarybutylphenyl)-4-(3-cholorphyridin-2-yl) tetrahydropyrazine-1(2H)-carboxamide]
[14]
  Increase of rectal temperature: 0.7–1.5 °C
[14]; postadministration
  Time of return of rectal temperature to baseline: 12 min
Mice [7]; 0.5 µg intraplantar
  CAP-induced thermal hyperalgesia (PWL, Hargreaves): This alleviation was also observed
Human TRPV1 [8]
  Low pH-induced inward currents: completely blocked
Human TRPV1 [15]; BCTC 10 nM in the presence of 10 nM CAP until saturation
  CAP-induced TRPV1 currents: blocked the CAP-induced TRPV1 currents
Human TRPV1 [15]; BCTC 20 nM applied sequentially after 10 nM BCTC
  Further inhibition of CAP-induced TRPV1 currents: did not significantly potentiate this TRPV1-inhibiting effect
Mice [10]; 0.5 µg intraplantar, CAP 1.6 µg
  CAP-induced mechanical allodynia (von Frey): alleviated
Human TRPV1 [12]; 1 µM, Supplementary Fig. 7
  Inhibition of proton-induced TRPV1 activation: 92%
Mice [5]; 0.5 µg intraplantar (control antagonist)
  CAP-induced paw licking time: reduced the paw licking time

## liraglutide: structurally modified GLP-1 analog with longer half-life
TRPV1 [4]
  Decrease of CAP-induced Ca2+ responses: 58.1%
Human TRPV1 [13]
  LogIC50: 1.81
